From patent US10590121B2, “Kinase inhibitors and methods for making and using” (Rigel Pharmaceuticals, Inc., priority 2017, dated 2020)

How the values were obtained:
[1] = test system: LPS induced IL-23 (p19/p40) in DC cells differentiated from human PBMC; experiment: IL23-p19 ELISA, dendritic cells (DC differentiated from human PBMC), IFNγ primed, LPS stimulated; type: cell-based; details: human PBMC-derived dendritic cells, 1 μg/ml LPS, 18 hours, 10 pt
How it was run: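 Human PBMC-derived DCs (GM-CSF 100 ng/ml + IL-4 20 ng/ml, 7 days) were primed 24 h with IFNγ 50 ng/ml, pre-incubated 1 h with compound, then stimulated 18 h with LPS 1 μg/ml at 37° C. Supernatant IL-23 was measured by sandwich chemiluminescent ELISA (anti-p19 capture, anti-p40 detection); cytotoxicity was checked by CellTiter-Glo.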

[2] = test system: LPS induced IL23p19 in THP-1 cells; experiment: LPS Induced IL23p19 in THP-1 Cells (with IFNγ Primed) Assay; type: cell-based; details: Homo sapiens; THP-1 cells primed with IFNγ 50 ng/mL, 1 μg/mL LPS, 18 hours, 10 pt; read-out: IL23-p19 ELISA, THP1-IFNy, LPS, 10 pt EC50
How it was run: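 THP-1 cells were primed with IFNγ (50 ng/mL, ~18 h), pre-incubated 1 h with compound, then stimulated 18 h with 1 μg/mL LPS at 37° C. Supernatant IL-23p19 was measured by chemiluminescent sandwich ELISA, and EC50 was fitted. Toxicity was checked on the remaining cells with Cell Titer Glo.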

EC50 [2] [nM] | Compound | EC50 [1] [nM]
93 | O=C(Nc1ccc(CCN2CCOCC2)cc1N1CCCCC1)c1cccc(-c2cn[nH]c2)n1 [I-54, N-(4-(2-morpholinoethyl)-2-(piperidin-1-yl)phenyl)-6-(1H-pyrazol-4-yl)picolinamide] | 163
92.4 | O=C(Nc1cc(CCN2CCOCC2)ccc1N1CCCCC1)c1cccc(-c2cn[nH]c2)n1 [I-66, N-(5-(2-morpholinoethyl)-2-(piperidin-1-yl)phenyl)-6-(1H-pyrazol-4-yl)picolinamide] | 41.8
2630 | CN(CCN1CCOCC1)c1ccc(NC(=O)c2cccc(-c3cn[nH]c3)n2)c(N2CCCCC2)c1 [I-69, N-(4-(methyl(2-morpholinoethyl)amino)-2-(piperidin-1-yl)phenyl)-6-(1H-pyrazol-4-yl)picolinamide] | 2820
870 | O=C(Nc1ccc(NCCN2CCOCC2)cc1N1CCCCC1)c1cccc(-c2cn[nH]c2)n1 [I-72, N-(4-((2-morpholinoethyl)amino)-2-(piperidin-1-yl)phenyl)-6-(1H-pyrazol-4-yl)picolinamide] | 1840
82.7 | O=C(Nc1ccc(NCCN2CCOCC2)cc1N1CCCCC1)c1ccc(-c2cn[nH]c2)o1 [I-73, N-(4-((2-morpholinoethyl)amino)-2-(piperidin-1-yl)phenyl)-5-(1H-pyrazol-4-yl)furan-2-carboxamide] | 175
51.4 | O=C(Nc1ccc(NCCN2CCOCC2)cc1N1CCCCC1)c1csc(-c2cn[nH]c2)n1 [I-74, N-(4-((2-morpholinoethyl)amino)-2-(piperidin-1-yl)phenyl)-2-(1H-pyrazol-4-yl)thiazole-4-carboxamide] | 104

The next lines start with the compound.

Compound | EC50 [2] [nM] | EC50 [1] [nM]
O=C(Nc1ccc(CCN2CCOCC2)cc1N1CCCCC1)c1csc(-c2cn[nH]c2)n1 [I-56, N-(4-(2-morpholinoethyl)-2-(piperidin-1-yl)phenyl)-2-(1H-pyrazol-4-yl)thiazole-4-carboxamide] | 2370 | 9560
O=C(Nc1cc(C(=O)N2CCOCC2)ccc1N1CCCCC1)c1cccc(-c2cn[nH]c2)n1 [I-57, N-(5-(morpholine-4-carbonyl)-2-(piperidin-1-yl)phenyl)-6-(1H-pyrazol-4-yl)picolinamide] | 498 | 1150
O=C(Nc1cc(C(=O)N2CCOCC2)ccc1N1CCCCC1)c1ccc(-c2cn[nH]c2)o1 [I-58, N-(5-(morpholine-4-carbonyl)-2-(piperidin-1-yl)phenyl)-5-(1H-pyrazol-4-yl)furan-2-carboxamide] | 1500 | 5600
O=C(Nc1cc(C(=O)N2CCOCC2)ccc1N1CCCCC1)c1csc(-c2cn[nH]c2)n1 [I-59, N-(5-(morpholine-4-carbonyl)-2-(piperidin-1-yl)phenyl)-2-(1H-pyrazol-4-yl)thiazole-4-carboxamide] | 253 | 294
O=C(Nc1cc(CN2CCOCC2)ccc1N1CCCCC1)c1ccc(-c2cn[nH]c2)o1 [I-61, N-(5-(morpholinomethyl)-2-(piperidin-1-yl)phenyl)-5-(1H-pyrazol-4-yl)furan-2-carboxamide] | 767 | 3840
O=C(Nc1cc(CN2CCOCC2)ccc1N1CCCCC1)c1csc(-c2cn[nH]c2)n1 [I-62, N-(5-(morpholinomethyl)-2-(piperidin-1-yl)phenyl)-2-(1H-pyrazol-4-yl)thiazole-4-carboxamide] | 306 | 311
O=C(Nc1cc(CC(=O)N2CCOCC2)ccc1N1CCCCC1)c1cccc(-c2cn[nH]c2)n1 [I-63, N-(5-(2-morpholino-2-oxoethyl)-2-(piperidin-1-yl)phenyl)-6-(1H-pyrazol-4-yl)picolinamide] | 150 | 160
O=C(Nc1cc(CC(=O)N2CCOCC2)ccc1N1CCCCC1)c1ccc(-c2cn[nH]c2)o1 [I-64, N-(5-(2-morpholino-2-oxoethyl)-2-(piperidin-1-yl)phenyl)-5-(1H-pyrazol-4-yl)furan-2-carboxamide] | 3680 | 1320
O=C(Nc1cc(CC(=O)N2CCOCC2)ccc1N1CCCCC1)c1csc(-c2cn[nH]c2)n1 [I-65, N-(5-(2-morpholino-2-oxoethyl)-2-(piperidin-1-yl)phenyl)-2-(1H-pyrazol-4-yl)thiazole-4-carboxamide] | 195 | 124
O=C(Nc1cc(CCN2CCOCC2)ccc1N1CCCCC1)c1ccc(-c2cn[nH]c2)o1 [I-67, N-(5-(2-morpholinoethyl)-2-(piperidin-1-yl)phenyl)-5-(1H-pyrazol-4-yl)furan-2-carboxamide] | 307 | 480
O=C(Nc1cc(CCN2CCOCC2)ccc1N1CCCCC1)c1csc(-c2cn[nH]c2)n1 [I-68, N-(5-(2-morpholinoethyl)-2-(piperidin-1-yl)phenyl)-2-(1H-pyrazol-4-yl)thiazole-4-carboxamide] | 62.5 | 47.6
CN(CCN1CCOCC1)c1ccc(NC(=O)c2ccc(-c3cn[nH]c3)o2)c(N2CCCCC2)c1 [I-70, N-(4-(methyl(2-morpholinoethyl)amino)-2-(piperidin-1-yl)phenyl)-5-(1H-pyrazol-4-yl)furan-2-carboxamide] | 1440 | 1920
CN(CCN1CCOCC1)c1ccc(NC(=O)c2csc(-c3cn[nH]c3)n2)c(N2CCCCC2)c1 [I-71, N-(4-(methyl(2-morpholinoethyl)amino)-2-(piperidin-1-yl)phenyl)-2-(1H-pyrazol-4-yl)thiazole-4-carboxamide] | 19300 | 2280
